These are literature values, as cited in patent US6764831B2, “Methods and compositions for pain management” (priority 1998, dated 2004).

The conditions of series [1]: injected into the brachial artery of humans.
A further series has as its system cholinesterase (ChE). The settings on record: muscle relaxants used with anesthesia.
The test system of series [2] is ACh level in the extracellular space. Particulars: injection into rats.

The structures appear in SMILES notation.

`CC(=O)OCC[N+](C)(C)C` [ACh, acetylcholine]: the “pain produced on injection” value in series [1] is “extreme pain was produced”. `COc1ccc(C[C@@H]2c3cc(OC)c(OC)cc3CC[N@+]2(C)CCC(=O)OCCCCCOC(=O)CC[N@@+]2(C)CCc3cc(OC)c(OC)cc3[C@H]2Cc2ccc(OC)c(OC)c2)cc1OC` [NIMBEX]: in the series with cholinesterase (ChE), the “effect on cholinesterase (ChE)” value is “no effect”. With `CC(=O)O[C@H]1C[C@@H]2CC[C@@H]3[C@H](CC[C@@]4(C)[C@H]3C[C@H]([N+]3(C)CCCCC3)[C@@H]4OC(C)=O)[C@@]2(C)C[C@@H]1N1CCCCC1.[Br-]` [NOCURON], in the series with cholinesterase (ChE), the “effect on cholinesterase (ChE)” value was “no effect”. As for `C=CC[N+]1([C@H]2C[C@H]3[C@@H]4CC[C@H]5C[C@H](O)[C@@H](N6CCOCC6)C[C@]5(C)[C@H]4CC[C@]3(C)[C@H]2OC(C)=O)CCCC1` [ROCURONIUM], in the series with cholinesterase (ChE), the “effect on cholinesterase (ChE)” value is given as “no effect”. Take `C[N+](C)(C)CCOC(=O)CCC(=O)OCC[N+](C)(C)C` [Succinylcholine]: in the series with cholinesterase (ChE), the “effect on cholinesterase (ChE)” value was “no effect”. Regarding `CCCCCCCNC(=O)Oc1ccc2c(c1)[C@]1(C)CCN(C)[C@@H]1N2C` [heptylphysostigmine], in series [2], the “ACh level in the extracellular space” value was “elevation”.

As to `CN(C)C(=O)Oc1cccc([N+](C)(C)C)c1` [neostigmine], the cholinesterase inhibition result with cholinesterase is “inhibit”. In the series on extracellular ACh level, the “extracellular ACh level” value was “above detection limit”.
